Laboratory results as given in patent publication US8623893B2, “Pyridino-pyridinone derivatives, preparation and therapeutic use thereof” (SANOFI, priority 2009, dated 2014).

How the values were obtained:
[1] = biological target: T1, Flt-3 receptor (constitutively active mutant Flt3ITD, MV4-11 cell line) (Homo sapiens, UniProt P36888, INS600HVDFREYEYD); test: Inhibition of proliferation of MV4-11 cells (tyrosine kinase activity of Flt-3 receptor), CellTiter-Glo, 72 h; format: cell-based; conditions: 72 h incubation, cellular ATP, read-out: IC50 (concentration that inhibits 50% of the proliferation of the MV4-11 cells)
T1 construct: bearing a constitutively active mutant Flt3ITD; endogenous in cells; host or cells: MV4-11
T1 sequence (P36888 with tags, fused parts or gaps INS600HVDFREYEYD): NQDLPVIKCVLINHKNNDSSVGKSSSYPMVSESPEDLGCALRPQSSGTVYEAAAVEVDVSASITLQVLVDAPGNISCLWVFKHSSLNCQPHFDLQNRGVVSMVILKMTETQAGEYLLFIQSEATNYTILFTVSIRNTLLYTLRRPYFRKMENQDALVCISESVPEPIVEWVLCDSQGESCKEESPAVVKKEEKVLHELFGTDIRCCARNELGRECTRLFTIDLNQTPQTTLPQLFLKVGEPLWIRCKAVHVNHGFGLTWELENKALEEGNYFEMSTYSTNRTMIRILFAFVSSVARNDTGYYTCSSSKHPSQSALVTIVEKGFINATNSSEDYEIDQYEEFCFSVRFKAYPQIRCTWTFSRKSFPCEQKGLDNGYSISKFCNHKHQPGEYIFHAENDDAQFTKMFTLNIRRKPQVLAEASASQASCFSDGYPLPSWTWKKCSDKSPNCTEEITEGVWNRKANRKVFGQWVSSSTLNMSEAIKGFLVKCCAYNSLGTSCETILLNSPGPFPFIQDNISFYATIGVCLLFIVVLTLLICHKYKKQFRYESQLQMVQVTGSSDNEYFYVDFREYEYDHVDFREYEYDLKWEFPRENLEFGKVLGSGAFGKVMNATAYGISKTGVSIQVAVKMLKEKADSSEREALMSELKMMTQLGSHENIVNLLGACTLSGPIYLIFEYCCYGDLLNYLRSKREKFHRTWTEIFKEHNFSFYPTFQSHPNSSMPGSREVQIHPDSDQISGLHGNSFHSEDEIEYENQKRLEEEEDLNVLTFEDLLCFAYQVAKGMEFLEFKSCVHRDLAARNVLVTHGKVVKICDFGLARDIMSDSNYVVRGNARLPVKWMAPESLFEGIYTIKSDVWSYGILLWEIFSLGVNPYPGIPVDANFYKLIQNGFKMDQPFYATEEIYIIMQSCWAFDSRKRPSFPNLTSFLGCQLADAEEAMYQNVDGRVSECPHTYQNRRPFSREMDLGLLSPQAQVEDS
Experimental: (§1) The inhibitory activity with respect to PDGF or Flt-3 receptors is given by the concentration that inhibits 50% of the proliferation activity of cells Baf3 tel/PDGF or MV4-11, respectively.
Measurement of Inhibition of the Tyrosine Kinase Activity of the Flt-3 Receptor
The inhibitory effect of the compounds according to the invention on the tyrosine kinase activity of the Flt-3 receptor was evaluated on the MV4-11 cell line, a line established from a leukaemia of the AML type and bearing a constitutively active mutant Flt3ITD. The inhibitory activity is correlated with inhibition of cell growth, according to the protocols described by SPIEKERMANN, K. et al., Blood, 2003, 101, (4) 1494-1504 and O'FARRELL, A.-M. et al., Blood, 2003, 101, (9) 3597-3605.
(§2) The MV4-11 cells are washed with PBS buffer and seeded in 96-well plates, at a density of 1.10^5 cells/ml (100 μl per well), in RPMI 1640 containing 10% of FCS, in the presence or absence of the test compounds. After incubation for 72 h, viable cells are quantified by measurement of cellular ATP using the CellTiter-Glo® kit (Promega, Cat G7571). The cells are treated according to the instructions given by the supplier of the kit and the luminescence is measured using a Luminoskan (Ascent, Labsystem) with the following parameters: measurement: single; integration time: 1000 ms, lag time: 5 s.
The inhibitory activity with respect to the Flt-3 receptor is given by the concentration that inhibits 50% of the proliferation of the MV4-11 cells.

[2] = biological target: T2, fusion protein Tel/PDGF-R beta (PDGF beta receptor) in BaF/3 cells (Homo sapiens, UniProt P09619); test: Inhibition of proliferation of BaF3 Tel/PDGF cells (tyrosine kinase activity of PDGF-R beta), CellTiter-Glo, 72 h; format: cell-based, murine; conditions: 72 h incubation, cellular ATP, read-out: IC50 (concentration that inhibits 50% of the proliferation of Baf3 tel/PDGF cells)
T2 construct: the transmembrane and intracellular part of the PDGF-R beta receptor; expressed in transfected cells; host or cells: murine haematopoietic cell line BaF/3; the other entry of the earlier key: ETV6 (P41212, Transcription factor ETV6)
Text: as §1
Measurement of Inhibition of the Tyrosine Kinase Activity of the Receptor to PDGF Beta (PDGF-Rβ) (Baf-3 tel/PDGFRβ):
This test consists of evaluating the effects of the compounds on the tyrosine kinase activity of the PDGF beta receptor.
The inhibitory effect of the compounds according to the invention on the tyrosine kinase activity of the PDGF-R receptor was evaluated on the murine haematopoietic cell line BaF/3 transfected with a plasmid coding for the fusion protein Tel/PDGF-R beta. This fusion protein is found in chronic myeloid myelomonocytic leukaemias (CMML). It comprises the N-terminal part of the transcription factor Tel and the transmembrane and intracellular part of the PDGF-R beta receptor. This fusion protein is present in dimerized form (presence of an oligomerization domain in the N-terminal part of Tel) and accordingly leads to the constitutive activity of the kinase domain of PDGF-R beta.
as §2, with “The BaF3 Tel/PDGF” for “The MV4-11”, “with phosphate” for “with PBS”, “of 5.10^4” for “of 1.10^5”, “([…]” for “(100 μl”, “h, the” for “h,”, “measured with” for “measured using”
It thus appears that the compounds according to the invention have an inhibitory activity on the tyrosine kinase activity of PDGF-R beta. This activity is given by the concentration that inhibits 50% of the proliferation of Baf3 tel/PDGF cells (IC50).

T2 sequence (P09619 with tags, fused parts or gaps): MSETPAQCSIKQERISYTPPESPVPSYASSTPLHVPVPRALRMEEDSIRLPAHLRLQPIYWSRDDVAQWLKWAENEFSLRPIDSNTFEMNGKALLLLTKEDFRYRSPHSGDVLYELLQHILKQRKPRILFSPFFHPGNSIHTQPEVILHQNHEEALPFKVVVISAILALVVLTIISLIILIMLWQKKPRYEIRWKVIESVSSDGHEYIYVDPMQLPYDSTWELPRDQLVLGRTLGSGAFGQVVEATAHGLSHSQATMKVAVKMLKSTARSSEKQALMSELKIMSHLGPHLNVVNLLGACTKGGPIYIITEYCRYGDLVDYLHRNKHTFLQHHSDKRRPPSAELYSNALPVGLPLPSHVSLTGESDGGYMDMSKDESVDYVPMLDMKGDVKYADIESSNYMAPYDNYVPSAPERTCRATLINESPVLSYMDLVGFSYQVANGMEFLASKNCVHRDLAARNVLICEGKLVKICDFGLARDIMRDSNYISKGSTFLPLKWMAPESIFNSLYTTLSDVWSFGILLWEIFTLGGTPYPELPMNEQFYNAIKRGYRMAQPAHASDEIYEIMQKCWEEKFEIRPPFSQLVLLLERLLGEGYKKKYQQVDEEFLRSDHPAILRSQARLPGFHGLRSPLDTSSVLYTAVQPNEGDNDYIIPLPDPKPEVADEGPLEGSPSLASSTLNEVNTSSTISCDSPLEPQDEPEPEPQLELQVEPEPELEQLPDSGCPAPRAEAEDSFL

Row | IC50 [1] | IC50 [2] | SMILES
1 | 52 nM | 2 nM | CCn1c(N)c(-c2ncc[nH]2)c(=O)c2ccc(-c3ccc(CC(=O)Nc4ncc(C)s4)cc3)nc21 [Compound 8, 2-{4-[7-Amino-8-ethyl-6-(1H-imidazol-2-yl)-5-oxo-5,8-dihydro-[1,8]naphthyridin-2-yl]-phenyl}-N-(5-methyl-thiazol-2-yl)-acetamide]
2 | 26 nM | 8 nM | CCn1c(N)c(-c2ncc[nH]2)c(=O)c2ccc(-c3ccc(CC(=O)Nc4nnc(C5CC5)s4)cc3)nc21 [Compound 20, 2-{4-[7-Amino-8-ethyl-6-(1H-imidazol-2-yl)-5-oxo-5,8-dihydro-[1,8]naphthyridin-2-yl]-phenyl}-N-(5-cyclopropyl-[1,3,4]thiadiazol-2-yl)-acetamide]
3 | 84 nM |  | CCn1c(N)c(-c2ncc[nH]2)c(=O)c2ccc(-c3ccc(CC(=O)Nc4cnccc4C)cc3)nc21 [Compound 42, 2-{4-[7-Amino-8-ethyl-6-(1H-imidazol-2-yl)-5-oxo-5,8-dihydro-[1,8]naphthyridin-2-yl]-phenyl}-N-(4-methyl-pyridin-3-yl)-acetamide]
4 | 69 nM |  | CCn1c(N)c(-c2ncc[nH]2)c(=O)c2ccc(-c3ccc(CC(=O)Nc4ncccc4C)cc3)nc21 [Compound 32, 2-{4-[7-Amino-8-ethyl-6-(1H-imidazol-2-yl)-5-oxo-5,8-dihydro-[1,8]naphthyridin-2-yl]-phenyl}-N-(3-methyl-pyridin-2-yl)-acetamide]
5 | 30 nM | 2 nM | CCn1c(N)c(-c2ncc[nH]2)c(=O)c2ccc(-c3ccc(CC(=O)Nc4onc(C)c4C)cc3)nc21 [Compound 27, 2-{4-[7-Amino-8-ethyl-6-(1H-imidazol-2-yl)-5-oxo-5,8-dihydro-[1,8]naphthyridin-2-yl]-phenyl}-N-(3,4-dimethyl-isoxazol-5-yl)-acetamide]
6 | 95 nM |  | CCn1c(N)c(-c2ncc[nH]2)c(=O)c2ccc(-c3ccc(CC(=O)Nc4ncc(Cl)s4)cc3)nc21 [Compound 26, 2-{4-[7-Amino-8-ethyl-6-(1H-imidazol-2-yl)-5-oxo-5,8-dihydro-[1,8]naphthyridin-2-yl]-phenyl}-N-(5-chloro-thiazol-2-yl)-acetamide]
7 | 19 nM | 1.4 nM | CCc1ccnc(NC(=O)Cc2ccc(-c3ccc4c(=O)c(-c5ncc[nH]5)c(N)n(CC)c4n3)cc2)c1 [Compound 43, 2-{4-[7-Amino-8-ethyl-6-(1H-imidazol-2-yl)-5-oxo-5,8-dihydro-[1,8]naphthyridin-2-yl]-phenyl}-N-(4-ethyl-pyridin-2-yl)-acetamide]
8 | 115 nM | 6.6 nM | CCn1c(N)c(-c2nc(C)c[nH]2)c(=O)c2ccc(-c3ccc(CC(=O)NCc4ccncc4)cc3)nc21 [Compound 50, 2-{4-[7-Amino-8-ethyl-6-(4-methyl-1H-imidazol-2-yl)-5-oxo-5,8-dihydro-[1,8]naphthyridin-2-yl]-phenyl}-N-pyridin-4-ylmethyl-acetamide]
